Where two headings read alike, the source gives them in different places.
Tests used:
Assay type in all cases: in vivo
[1] = test system: Resistant Plutella xylostella; experiment: Resistant Plutella xylostella Controlling Activity Test; settings: Plutella xylostella, in Raphanus sativus, 72 h
Description: Resistant Plutella xylostella Controlling Activity Test:
Leaf dipping method was used, the appropriate amount of radish leaves were dipped into the drug for 10 s, placed in a plastic petri dish padded with filter paper and dried naturally, each dish was connected with 10 heads of 2nd instar small cabbage moths, placed in the observation room at 24° C. and light (16/8 h). 72 h later observation was made, and the body of the insect was touched lightly with a brush and no reaction was regarded as a dead insect, which was repeated for three times, and a blank control was also set up without any additional agent.

[2] = test system: Tetranychus cinnabarinus; experiment: Tetranychus cinnabarinus Controlling Activity Test; settings: 72 h; for mortality at 1.56 ppm / mortality at 3.125 ppm / mortality at 6.25 ppm / mortality at 12.5 ppm: in Phaseolus vulgaris; for mortality at 1.6 ppm: read-out: mortality against Tetranychus cinnabarinus
Description: Tetranychus cinnabarinus Controlling Activity Test:
The test compound was dissolved in acetone and diluted to the desired concentration with 0.1 wt % aqueous tween 80, the acetone content not exceeding 5 wt %.
One real leaf was removed from kidney bean seedlings grown to two real leaves, inoculating Tetranychus cinnabarinus, investigating the base number, performing whole plant spraying treatment by using a handheld sprayer, repeating the treatment for 3 times (the application amount of the preparation is about 0.5 g), observing in a constant-temperature observation room after the treatment, investigating the number of live mites after 72 hours, and calculating the mortality. The number of Tetranychus cinnabarinus inoculated in each time is 35-100.
Mortality%=(number of inoculated insects−number of live insects after drug administration)÷number of inoculated insects×100%

[3] = test system: Frankliniella occidentalis larvae; experiment: Frankliniella occidentalis Larva Controlling Activity Test; settings: for mortality at 3.25 ppm: read-out: mortality for Frankliniella occidentalis larvae
Description: Frankliniella occidentalis Larva Controlling Activity Test:
The test compound is dissolved in acetone and diluted to the desired concentration. 0.5 mL of the prepared acetone medicinal liquid is added into a glass tube (the inner diameter is 1 cm, the length is 10 cm), and the glass tube is repeatedly rolled on a flat table until the acetone solution is completely volatilized. Soaking cabbage leaves in the liquid medicine with the corresponding concentration for 15 s, drying, placing in a glass tube, inoculating 10-20 heads of Frankliniella occidentalis larvae in the glass tube, repeating the treatment for three times, observing in a constant-temperature observation room after the treatment, investigating the number of live insects after 72 hours, and calculating the mortality.

[4] = test system: Sensitive Plutella xylostella; experiment: Sensitive Plutella xylostella Controlling Activity Test
Description: Sensitive Plutella xylostella Controlling Activity Test:
Test targets: Plutella xylostella, 3 rd instar larvae, a sensitive strain raised indoors.
The test method comprises the following steps: selecting fresh cabbage leaves cultivated in a greenhouse, making the cabbage leaves into round with the diameter of 3 cm by using a puncher, putting the circular blade into prepared liquid medicine to be soaked for 10 s according to the sequence from low dose to high dose of experimental design, naturally drying the cabbage leaves in the shade, putting the soaked cabbage leaves into a culture dish with filter paper and the diameter of 9 cm, inoculating regular healthy test insects, n=10, repeating the treatment for 3 times, and additionally setting blank control.

[5] = test system: Spodoptera frugiperda; experiment: Spodoptera frugiperda Indoor Toxicity Determination Test; settings: in Zea mays, read-out: mortality against Spodoptera frugiperda
Description: Spodoptera frugiperda Indoor Toxicity Determination Test
Test targets: Spodoptera frugiperda, 3rd instar larvae, a sensitive strain raised indoors.
The test method comprises the following steps: firstly, selecting fresh corn leaves cultivated in a greenhouse, cutting the fresh corn leaves into 5 cm-long leaf segments, sequentially arranging the test design from low dose to high dose, soaking the fresh corn leaves in prepared liquid medicine for 10 s, naturally drying the fresh corn leaves in the shade, then placing the dried corn leaves in a culture dish with filter paper and the diameter of 9 cm, inoculating regular healthy test insects, n=10, repeating the treatment for 3 times, and additionally arranging blank control.

[6] = test system: Phyllotreta striolata; experiment: Phyllotreta striolata Controlling Activity Test; settings: 72 h, read-out: mortality against Phyllotreta striolata
Description: Phyllotreta striolata Controlling Activity Test:
Preparing liquid medicine according to the experimental design concentration, selecting fresh cabbage leaves, soaking the cabbage leaves for 15 s, taking out, airing, placing in a glass tube, connecting 20-25 heads of the Flea beetles adults with each tube, repeating the treatment for 3 times, investigating the death condition of the Phyllotreta striolata after 72 hours, and calculating and correcting the death rate.

[7] = read-out: mortality against Plutella xylostella
[8] = 3.25 ppm (3.125 mg/L), larvae, 72 hours
[9] = 1 ppm (1 mg/L), 3rd instar larvae, sensitive strain, read-out: mortality against Plutella xylostella

With CNC(=O)c1cc(Cl)cc(C)c1NC(=O)c1cc(Br)nn1-c1ncccc1Cl [Chlorantraniliprole, reference compound] the mortality at 0.2 ppm [1] was 33.3%, the mortality at 1 ppm [1] was 40% and the mortality at 5 ppm [1] was 66.7%.

CO/N=C/NC(=O)c1ccc(C2=NOC(c3cc(Cl)cc(Cl)c3)(C(F)(F)F)C2)cc1C (centres unmarked) [Fluxametamide, 4-[5-(3,5-dichlorophenyl)-4,5-dihydro-5-(trifluoromethyl)-3-isoxazolyl]-N-[(methoxyamino)methylene]-2-methylbenzamide, reference compound] was tested, and the mortality at 1.56 ppm [2] was 0%, the mortality at 3.125 ppm [2] was 25.6% and the mortality at 6.25 ppm [2] was 81.5%. The mortality at 12.5 ppm [2] was 96.8%, the mortality at 1.56 ppm ([3]; in Brassica oleracea, 72 h) was 0% and the mortality at 3.125 ppm ([3]; in Brassica oleracea, 72 h) was 0%. For the same compound, the mortality at 6.25 ppm ([3]; in Brassica oleracea, 72 h) was 0%, the mortality at 0.2 ppm [1] was 3.33% and the mortality at 1 ppm [1] was 93.3%. It also gave a mortality at 5 ppm [1] of 100%, a mortality at 0.333 ppm ([4]; in Brassica oleracea, 72 h) of 0% and a mortality at 1 ppm ([4]; in Brassica oleracea, 72 h) of 5%.

In the case of CC(=O)N(C(=O)c1ccc(C2=NOC(c3cc(Cl)c(F)c(Cl)c3)(C(F)(F)F)C2)cc1C)C1CCS(=O)(=O)C1 (centres unmarked) [Compound I-9, N-acetyl-4-(5-(3,5-dichloro-4-fluorophenyl)-5-(trifluoromethyl)-4,5-dihydroisoxazol-3-yl)-N-(1,1-dioxotetrahydrothiophen-3-yl)-2-methylbenzamide], the mortality at 1.6 ppm [2] is reported as greater than 90%, the mortality at 3.25 ppm ([3]; 72 h) is reported as greater than 90% and the mortality at 0.2 ppm [1] is reported as 43.3%. The mortality at 1 ppm [1] was 100%, the mortality at 5 ppm [1] was 100% and the mortality at 1 ppm [4, 7] was greater than 90%.

Cc1cc(C2=NOC(c3cc(Cl)c(F)c(Cl)c3)(C(F)(F)F)C2)ccc1C(=O)NC1CCSC1 (centres unmarked) [Compound I-23] was tested, and the mortality at 3.25 ppm [3, 8] was greater than 90% and the mortality at 1 ppm [4, 9] was greater than 90%.

Work on Cc1cc(C2=NO[C@](c3cc(Cl)c(F)c(Cl)c3)(C(F)(F)F)C2)ccc1C(=O)N[C@H]1CCS(=O)(=O)C1 [Compound I-18] yielded a mortality at 3.25 ppm [3, 8] greater than 90% and a mortality at 1 ppm [4, 9] greater than 90%.

Compound CCC(=O)N(C(=O)c1ccc(C2=NOC(c3cc(Cl)c(F)c(Cl)c3)(C(F)(F)F)C2)cc1C)C1CCS(=O)(=O)C1 (centres unmarked) [Compound I-10, N-propionyl-4-(5-(3,5-dichloro-4-fluorophenyl)-5-(trifluoromethyl)-4,5-dihydroisoxazol-3-yl)-N-(1,1-dioxotetrahydrothiophen-3-yl)-2-methylbenzamide] has a mortality at 1.6 ppm [2] greater than 90%, a mortality at 1.56 ppm [2] of 97.2% and a mortality at 3.125 ppm [2] of 100%. The mortality at 6.25 ppm [2] was 100%, the mortality at 12.5 ppm [2] was 100% and the mortality at 3.25 ppm ([3]; 72 h) was greater than 90%. For the same compound, the mortality at 1.56 ppm ([3]; in Brassica oleracea, 72 h) was 92%, the mortality at 3.125 ppm ([3]; in Brassica oleracea, 72 h) was 100% and the mortality at 6.25 ppm ([3]; in Brassica oleracea, 72 h) was 100%. The mortality at 1 ppm [5] was greater than 90% and the mortality at 1 ppm [4, 7] was greater than 90%.

Work on Cc1cc(C2=NO[C@@](c3cc(Cl)c(F)c(Cl)c3)(C(F)(F)F)C2)ccc1C(=O)N[C@H]1CCS(=O)(=O)C1 [Compound I-15] yielded a mortality at 3.25 ppm [3, 8] greater than 90% and a mortality at 1 ppm [4, 9] greater than 90%.

For Cc1cc(C2=NOC(c3cc(Cl)c(F)c(Cl)c3)(C(F)(F)F)C2)ccc1C(=O)N(C(=O)C(C)C)C1CCS(=O)(=O)C1 (centres unmarked) [Compound I-21, N-isopropionyl-4-(5-(3,5-dichloro-4-fluorophenyl)-5-(trifluoromethyl)-4,5-dihydroisoxazol-3-yl)-N-(1,1-dioxotetrahydrothiophen-3-yl)-2-methylbenzamide], the mortality at 3.25 ppm ([3]; 72 h) was greater than 90% and the mortality at 1 ppm [4, 7] was greater than 90%.

Cc1cc(C2=NOC(c3cc(Cl)c(F)c(Cl)c3)(C(F)(F)F)C2)ccc1C(=O)N[C@H]1CCS(=O)(=O)C1 (stereo partly drawn) [Compound I-13, 4-(5-(3,5-dichloro-4-fluorophenyl)-5-(trifluoromethyl)-4,5-dihydroisoxazol-3-yl)-N—((S)-1,1-dioxotetrahydrothiophen-3-yl)-2-methylbenzamide] was tested, and the mortality at 3.25 ppm ([3]; 72 h) was greater than 90% and the mortality at 1 ppm [4, 7] was greater than 90%.

Work on Cc1cc(C2=NOC(c3cc(Cl)c(F)c(Cl)c3)(C(F)(F)F)C2)ccc1C(=O)N(C(=O)C1CC1)C1CCS(=O)(=O)C1 (centres unmarked) [Compound I-22, N-cyclopropanoyl-4-(5-(3,5-dichloro-4-fluorophenyl)-5-(trifluoromethyl)-4,5-dihydroisoxazol-3-yl)-N-(1,1-dioxotetrahydrothiophen-3-yl)-2-methylbenzamide] yielded a mortality at 3.25 ppm ([3]; 72 h) greater than 90% and a mortality at 1 ppm [4, 7] greater than 90%.

Cc1cc(C2=NOC(c3cc(Cl)c(F)c(Cl)c3)(C(F)(F)F)C2)ccc1C(=O)N[C@@H]1CCS(=O)(=O)C1 (stereo partly drawn) [Compound I-14, 4-(5-(3,5-dichloro-4-fluorophenyl)-5-(trifluoromethyl)-4,5-dihydroisoxazol-3-yl)-N—((R)-1,1-dioxotetrahydrothiophen-3-yl)-2-methylbenzamide] gave a mortality at 1.6 ppm [2] greater than 90%, a mortality at 1.56 ppm [2] of 100% and a mortality at 3.125 ppm [2] of 100%. The mortality at 6.25 ppm [2] was 100%, the mortality at 12.5 ppm [2] was 100% and the mortality at 3.25 ppm ([3]; 72 h) was greater than 90%. The mortality at 50 ppm [6] was greater than 90%, the mortality at 1 ppm [5] was greater than 90% and the mortality at 1 ppm [4, 7] was greater than 90%.

Work on Cc1cc(C2=NO[C@@](c3cc(Cl)c(F)c(Cl)c3)(C(F)(F)F)C2)ccc1C(=O)NC1CCS(=O)(=O)C1 (stereo partly drawn) [Compound I-17, 4-((S)-5-(3,5-dichloro-4-fluorophenyl)-5-(trifluoromethyl)-4,5-dihydroisoxazol-3-yl)-N-(1,1-dioxotetrahydrothiophen-3-yl)-2-methylbenzamide] yielded a mortality at 1.6 ppm [2] greater than 90%, a mortality at 1.56 ppm [2] of 100% and a mortality at 3.125 ppm [2] of 100%. For the same compound, the mortality at 6.25 ppm [2] was 100%, the mortality at 12.5 ppm [2] was 100% and the mortality at 3.25 ppm ([3]; 72 h) was greater than 90%. For the same compound, the mortality at 50 ppm [6] was greater than 90% and the mortality at 1 ppm [4, 7] was greater than 90%.

Work on Cc1cc(C2=NO[C@@](c3cc(Cl)c(F)c(Cl)c3)(C(F)(F)F)C2)ccc1C(=O)N[C@@H]1CCS(=O)(=O)C1 [Compound I-16] yielded a mortality at 3.25 ppm [3, 8] greater than 90% and a mortality at 1 ppm [4, 9] greater than 90%.

Cc1cc(C2=NOC(c3cc(Cl)c(Cl)c(Cl)c3)(C(F)(F)F)C2)ccc1C(=O)NC1CCS(=O)(=O)C1 (centres unmarked) [Compound I-3, N-(1,1-dioxotetrahydrothiophen-3-yl)-2-methyl-4-(5-(3,4,5-trichlorophenyl)-5-(trifluoromethyl)-4,5-dihydroisoxazol-3-yl) benzamide] was tested, and the mortality at 1.6 ppm [2] was greater than 90%, the mortality at 3.25 ppm ([3]; 72 h) was greater than 90% and the mortality at 1 ppm [4, 7] was greater than 90%.

Work on Cc1cc(C2=NOC(c3cc(Cl)c(F)c(Cl)c3)(C(F)(F)F)C2)ccc1C(=O)NC1CS(=O)(=O)C1 (centres unmarked) [X.82, reference compound] yielded a mortality at 1.56 ppm ([3]; 1.56 ppm, larvae, cabbage leaves soaked 15 s, 72 hours, read-out: Mortality (%)) of 0%, a mortality at 3.125 ppm ([3]; 3.125 ppm, larvae, cabbage leaves soaked 15 s, 72 hours, read-out: Mortality (%)) of 0% and a mortality at 6.25 ppm ([3]; 6.25 ppm, larvae, cabbage leaves soaked 15 s, 72 hours, read-out: Mortality (%)) of 65%. For the same compound, the mortality at 0.333 ppm ([4]; 72 h, 0.333 ppm, 3rd instar larvae, sensitive strain, cabbage leaves soaked 10 s, three days, read-out: Mortality (%)) was 0% and the mortality at 1 ppm ([4]; 72 h, 1 ppm, 3rd instar larvae, sensitive strain, cabbage leaves soaked 10 s, three days, read-out: Mortality (%)) was 10%.
